According to patent US7642364B2, “Benzopyrone compounds, preparation method and use thereof” (Shenyang Research Institute of Chemical Industry, priority 2003, dated 2010):

Tests used:
[1] = tested on: cucumber downy mildew; assay: Fungicidal activity on potted plants, cucumber downy mildew; assay type: in vivo; details: for control against cucumber downy mildew: 200 ppm, spray on potted plant; for control(%) fungicidal activity against cucumber downy mildew: 50 ppm
[2] = tested on: cucumber grey mold; assay: Fungicidal activity on potted plants, cucumber grey mold; assay type: in vivo; details: 200 ppm
[3] = tested on: Mexican lady beetle; assay: Insecticidal/acaricidal activity, Mexican lady beetle; assay type: in vivo; details: 300 ppm
Procedure: Numerous insect larvae were put into containers then were fed with treated corn leaves. Potter's spraying tower was used as the sprayer and spraying volume was 1 mL. The spraying pressure was 13.5 lb/in^2.

[4] = tested on: two-spotted spider mite; assay: Insecticidal/acaricidal activity, two-spotted spider mite; assay type: in vivo; details: 300 ppm
[5] = tested on: grape downy mildew; assay: Fungicidal activity on potted plants, grape downy mildew; assay type: in vivo; details: 200 ppm
[6] = tested on: tomato early stage blight; assay: Fungicidal activity on potted plants, tomato early stage blight; assay type: in vivo; details: 200 ppm
[7] = Biological evaluation of compound JP51 after synthesis; details: after synthesis and the biological evaluation
Excerpt: Biological active data of the compound in JP04-182461 have not been disclosed.

[8] = tested on: wheat leaf blotch; assay: Fungicidal activity on potted plants, wheat leaf blotch; assay type: in vivo; details: 200 ppm
[9] = tested on: culex mosquitoes; assay: Insecticidal/acaricidal activity, culex mosquitoes; assay type: in vivo; details: 10 ppm
[10] = tested on: tomato late blight; assay type: in vivo; details: 200 ppm
[11] = tested on: wheat leaf rust; assay: Fungicidal activity on potted plants, wheat leaf rust; assay type: in vivo; details: 200 ppm
[12] = tested on: wheat powdery mildew; assay: Fungicidal activity on potted plants, wheat powdery mildew; assay type: in vivo; details: 200 ppm

| Structure (SMILES) | control against cucumber downy mildew [1] [%] | control(%) fungicidal activity against cucumber downy mildew [1] [%] | other results |
| --- | --- | --- | --- |
| COC=C(C(=O)OC)c1ccccc1COc1ccc2c(COC)cc(=O)oc2c1 [Compound 19] | 100 |  |  |
| COC=C(C(=O)OC)c1ccccc1COc1ccc2c(-c3ccccc3)cc(=O)oc2c1 [Compound 52] | 100 | 100 |  |
| CCCCCCc1c(C)c2ccc(OCc3ccccc3C(=NOC)C(=O)OC)cc2oc1=O [Compound 414] | 100 |  |  |
| CCc1c(C)c2ccc(OCc3ccccc3C(=COC)C(=O)OC)cc2oc1=O [Compound 18] | 100 |  | control against cucumber grey mold [2]: 100% |
| CCCc1cc(=O)oc2cc(OCc3ccccc3C(=COC)C(=O)OC)ccc12 [Compound 34] | 100 |  |  |
| CCCCCCc1c(C)c2ccc(OCc3ccccc3C(=COC)C(=O)OC)cc2oc1=O [Compound 405] | 100 | 100 |  |
| COC=C(C(=O)OC)c1ccccc1COc1ccc2c(C(F)(F)F)cc(=O)oc2c1 [Compound 7] |  |  | control of Mexican lady beetle [3]: 100%; control of two-spotted spider mite [4]: > 50%; control against grape downy mildew [5]: 100% |
| CON=C(C(=O)OC)c1ccccc1COc1cc2oc(=O)cc(-c3cccc(C(F)(F)F)c3)c2cc1C(C)=O [Compound 141] |  | 100 |  |
| COC=C(C(=O)OC)c1ccccc1COc1ccc2c(C)cc(=O)oc2c1C(C)=O [Compound 11] |  |  | control against tomato early stage blight [6]: > 75% |
| CNC(=O)/C(=N/OC)c1ccccc1COc1ccc2ccc(=O)oc2c1 [JP51, reference compound] |  | 20 | biological activity (general statement) [7]: low biological active |
| COC=C(C(=O)OC)c1ccccc1COc1ccc2c(C)c(C)c(=O)oc2c1C [Compound 6] | 100 | 100 | control against wheat leaf blotch [8]: > 90%; control of culex mosquitoes [9]: 100%; control against tomato late blight [10]: > 95%; control against grape downy mildew [5]: 100%; control against cucumber grey mold [2]: 100%; control against wheat leaf rust [11]: 100% |
| COC=C(C(=O)OC)c1ccccc1COc1ccc2ccc(=O)oc2c1 [Compound 1] | 100 | 100 |  |
| COC=C(C(=O)OC)c1ccccc1COc1cc2oc(=O)cc(C)c2cc1C(C)=O [Compound 10] |  |  | control of Mexican lady beetle [3]: 100%; control against tomato late blight [10]: > 75%; control against grape downy mildew [5]: 100% |
| COC=C(C(=O)OC)c1ccccc1COc1ccc2c(C)cc(=O)oc2c1 [Compound 2] | 100 | 100 | control of culex mosquitoes [9]: 100%; control against cucumber grey mold [2]: 100% |
| CCCc1c(Cl)c(=O)oc2cc(OCc3ccccc3C(=NOC)C(=O)OC)ccc12 [Compound 410] | 100 |  |  |
| COC=C(C(=O)OC)c1ccccc1COc1ccc2c(-c3ccccc3)cc(=O)oc2c1C [Compound 4] | 100 |  |  |
| CON=C(C(=O)OC)c1ccccc1COc1ccc2c(C)c(Cl)c(=O)oc2c1C [Compound 109] | 100 |  |  |

| Structure (SMILES) | control against cucumber downy mildew [1] [%] | control(%) fungicidal activity against cucumber downy mildew [1] [%] | other results |
| --- | --- | --- | --- |
| CCCCc1c(C)c2ccc(OCc3ccccc3C(=COC)C(=O)OC)cc2oc1=O [Compound 402] | 100 | 100 | control against wheat powdery mildew [12]: 100%; control against cucumber grey mold [2]: 100% |
| COC=C(C(=O)OC)c1ccccc1COc1ccc2c(C(C)C)cc(=O)oc2c1 [Compound 26] | 100 | 100 |  |
| COC=C(C(=O)OC)c1ccccc1COc1ccc2c(C)c(Cl)c(=O)oc2c1C [Compound 25] | 100 |  |  |
| COC=C(C(=O)OC)c1ccccc1COc1ccc2c(-c3ccc(OC)c(OC)c3)cc(=O)oc2c1 [Compound 58] | 100 |  | control against cucumber grey mold [2]: 100% |
| CON=C(C(=O)OC)c1ccccc1COc1ccc2c(C)c(Cl)c(=O)oc2c1 [Compound 100] |  |  | control against cucumber grey mold [2]: 100% |
| COC=C(C(=O)OC)c1ccccc1COc1ccc2c(C)c(Cc3ccccc3)c(=O)oc2c1C [Compound 69] | 100 |  |  |
| CCCc1c(CCC)c2ccc(OCc3ccccc3C(=COC)C(=O)OC)cc2oc1=O [Compound 409] | 100 | 100 |  |
| COC=C(C(=O)OC)c1ccccc1COc1cc2oc(=O)cc(C)c2cc1C(C)=NOC [Compound 9] |  |  | control of Mexican lady beetle [3]: 100% |
| CCCc1c(C)c(=O)oc2cc(OCc3ccccc3C(=COC)C(=O)OC)ccc12 [Compound 37] | 100 | 100 |  |
| COC=C(C(=O)OC)c1ccccc1COc1ccc2c(C)c(Cl)c(=O)oc2c1 [Compound 12] | 100 | 100 |  |
| CCCc1c(C)c2ccc(OCc3ccccc3C(=NOC)C(=O)OC)cc2oc1=O [Compound 412] |  |  | control against wheat powdery mildew [12]: 100% |
| COC=C(C(=O)OC)c1ccccc1COc1ccc2c(C)c(F)c(=O)oc2c1 [Compound 50] | 100 |  | control against cucumber grey mold [2]: 100% |
| COC=C(C(=O)OC)c1ccccc1COc1ccc2c(C)c(C)c(=O)oc2c1 [Compound 5] | 100 | 100 | control of culex mosquitoes [9]: 100% |
| CCc1cc(=O)oc2cc(OCc3ccccc3C(=COC)C(=O)OC)ccc12 [Compound 33] | 100 |  |  |
| CCCCc1c(C)c2ccc(OCc3ccccc3C(=NOC)C(=O)OC)cc2oc1=O [Compound 413] | 100 |  | control against wheat powdery mildew [12]: 100% |
| CCCc1cc(=O)oc2c(C)c(OCc3ccccc3C(=COC)C(=O)OC)ccc12 [Compound 35] | 100 |  |  |
